Reference: patent US9902702B2, “Spirocycloheptanes as inhibitors of rock” (BRISTOL-MYERS SQUIBB COMPANY, priority 2014, dated 2018)

biological target: ROCK2 (Homo sapiens, UniProt O75116); test: ROCK assay: phosphorylation of FITC peptide substrate, LABCHIP 3000 mobility shift; type: biochemical; conditions: 5 μM ATP, 1.5 μM peptide substrate; read-out: ROCK2 Activity (ROCK IC50 range)
Method in brief: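 Rho kinase variant phosphorylates 1.5 μM FITC-AHA-AKRRRLSSLRA-OH with 5 μM ATP in 20 mM HEPES pH 7.5, 20 mM MgCl2, 0.015% Brij-35, 4 mM DTT, DMSO <2%. EDTA stops the reaction, and phospho and non-phospho peptides are resolved by LabChip 3000 mobility shift. IC50 from dose-response curve fit.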

Chain of ROCK2 (O75116 whole entry, species assumed): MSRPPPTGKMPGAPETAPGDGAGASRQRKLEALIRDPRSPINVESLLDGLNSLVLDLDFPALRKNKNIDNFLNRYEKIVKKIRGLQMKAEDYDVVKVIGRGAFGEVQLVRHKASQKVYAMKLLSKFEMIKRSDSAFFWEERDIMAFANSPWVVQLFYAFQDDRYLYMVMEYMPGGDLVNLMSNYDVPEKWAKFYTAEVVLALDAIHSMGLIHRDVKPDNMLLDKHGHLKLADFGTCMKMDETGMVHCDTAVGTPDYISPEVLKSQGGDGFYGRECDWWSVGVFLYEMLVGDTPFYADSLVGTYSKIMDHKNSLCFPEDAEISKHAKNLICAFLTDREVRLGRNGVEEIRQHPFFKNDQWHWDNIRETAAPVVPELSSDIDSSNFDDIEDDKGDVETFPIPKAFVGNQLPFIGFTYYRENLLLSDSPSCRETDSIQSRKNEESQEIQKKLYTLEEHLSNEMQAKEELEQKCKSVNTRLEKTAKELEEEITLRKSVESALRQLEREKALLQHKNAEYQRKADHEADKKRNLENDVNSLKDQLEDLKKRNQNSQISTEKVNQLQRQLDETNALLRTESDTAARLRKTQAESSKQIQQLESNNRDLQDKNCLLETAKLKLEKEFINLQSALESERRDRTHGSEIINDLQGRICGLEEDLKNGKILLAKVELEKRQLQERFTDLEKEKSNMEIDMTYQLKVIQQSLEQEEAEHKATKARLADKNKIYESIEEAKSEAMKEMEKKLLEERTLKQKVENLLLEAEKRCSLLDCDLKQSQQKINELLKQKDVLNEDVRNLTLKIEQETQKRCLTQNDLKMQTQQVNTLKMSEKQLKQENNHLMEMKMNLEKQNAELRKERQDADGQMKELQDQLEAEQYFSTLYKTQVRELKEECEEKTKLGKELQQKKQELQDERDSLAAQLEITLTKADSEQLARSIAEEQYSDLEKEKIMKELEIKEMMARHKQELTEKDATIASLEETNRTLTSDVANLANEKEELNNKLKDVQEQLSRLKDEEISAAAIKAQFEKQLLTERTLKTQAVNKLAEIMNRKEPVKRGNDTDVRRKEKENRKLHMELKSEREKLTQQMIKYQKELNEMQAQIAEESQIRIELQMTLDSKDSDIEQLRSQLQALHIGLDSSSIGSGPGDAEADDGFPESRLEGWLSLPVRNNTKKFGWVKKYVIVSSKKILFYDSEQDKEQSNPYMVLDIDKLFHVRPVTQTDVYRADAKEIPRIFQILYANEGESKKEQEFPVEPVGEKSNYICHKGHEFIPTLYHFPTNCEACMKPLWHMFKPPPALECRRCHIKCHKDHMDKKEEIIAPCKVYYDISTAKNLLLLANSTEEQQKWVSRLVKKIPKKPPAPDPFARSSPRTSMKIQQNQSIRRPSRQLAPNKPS

| IC50 [nM] | Structure (SMILES) |
| --- | --- |
| 5.1 to 15 | [H][C@]1(c2n[nH]c(=O)c3ccccc32)C[C@]2(C[C@@H](NC(=O)c3cnc4ccccn34)C2)C1 (stereo partly drawn) [Example 318, N-((aR)-6-(4-oxo-3,4-dihydrophthalazin-1-yl)spiro[3.3]heptan-2-yl)imidazo[1,2-a]pyridine-3-carboxamide] |
| 15.1 to 100 | [H][C@]1(c2n[nH]c(=O)c3ccccc32)C[C@]2(C[C@@H](NC(=O)c3cc4cc(OCc5ccccc5)ccc4[nH]3)C2)C1 (stereo partly drawn) [Example 319, 5-(benzyloxy)-N-((aR)-6-(4-oxo-3,4-dihydrophthalazin-1-yl)spiro[3.3]heptan-2-yl)-1H-indole-2-carboxamide] |
| 5.1 to 15 | [H][C@]1(c2n[nH]c(=O)c3ccccc32)C[C@]2(C[C@@H](NC(=O)c3cc4ccc(F)cc4[nH]3)C2)C1 (stereo partly drawn) [Example 320, 6-fluoro-N-((aR)-6-(4-oxo-3,4-dihydrophthalazin-1-yl)spiro[3.3]heptan-2-yl)-1H-indole-2-carboxamide] |
| 2.01 to 5 | [H][C@]1(c2n[nH]c(=O)c3ccccc32)C[C@]2(C[C@@H](NC(=O)c3cc4cccc(C)c4[nH]3)C2)C1 (stereo partly drawn) [Example 322, 7-methyl-N-((aR)-6-(4-oxo-3,4-dihydrophthalazin-1-yl)spiro[3.3]heptan-2-yl)-1H-indole-2-carboxamide] |
| 2.01 to 5 | [H][C@]1(c2n[nH]c(=O)c3ccccc32)C[C@]2(C[C@@H](NC(=O)c3cc4ccccc4cn3)C2)C1 (stereo partly drawn) [Example 326, N-((aR)-6-(4-oxo-3,4-dihydrophthalazin-1-yl)spiro[3.3]heptan-2-yl)isoquinoline-3-carboxamide] |
| 2.01 to 5 | [H][C@]1(c2n[nH]c(=O)c3ccccc32)C[C@]2(C[C@@H](NC(=O)c3cc4cccc(O)c4[nH]3)C2)C1 (stereo partly drawn) [Example 327, 7-hydroxy-N-((aR)-6-(4-oxo-3,4-dihydrophthalazin-1-yl)spiro[3.3]heptan-2-yl)-1H-indole-2-carboxamide] |
| 5.1 to 15 | [H][C@]1(c2n[nH]c(=O)c3ccccc32)C[C@]2(C[C@@H](NC(=O)c3ccc(Br)cc3)C2)C1 (stereo partly drawn) [Example 331, 4-bromo-N-((aR)-6-(4-oxo-3,4-dihydrophthalazin-1-yl)spiro[3.3]heptan-2-yl)benzamide] |
| 15.1 to 100 | [H][C@]1(c2n[nH]c(=O)c3ccccc32)C[C@]2(C[C@@H](NC(=O)c3cccc(OCCN4CCOCC4)c3)C2)C1 (stereo partly drawn) [Example 338, 3-(2-morpholino-ethoxy)-N-((aR)-6-(4-oxo-3,4-dihydrophthalazin-1-yl)spiro[3.3]heptan-2-yl)benzamide] |
| 100 to 2100 | [H][C@]1(c2n[nH]c(=O)c3ccccc32)C[C@]2(C[C@@H](NC(=O)c3ccc(CCN4CCCC4)nc3)C2)C1 (stereo partly drawn) [Example 344, N-((aR)-6-(4-oxo-3,4-dihydrophthalazin-1-yl)spiro[3.3]heptan-2-yl)-6-(2-(pyrrolidin-1-yl)ethyl)nicotinamide] |
| 100 to 2100 | [H][C@]1(c2n[nH]c(=O)c3ccccc32)C[C@]2(C[C@@H](NC(=O)c3cnc(O)c(Cl)c3)C2)C1 (stereo partly drawn) [Example 347, 5-chloro-6-hydroxy-N-((aR)-6-(4-oxo-3,4-dihydrophthalazin-1-yl)spiro[3.3]heptan-2-yl)nicotinamide] |

Further lines, the compound ahead of its results:

| Structure (SMILES) | IC50 [nM] |
| --- | --- |
| [H][C@]1(c2n[nH]c(=O)c3ccccc32)C[C@]2(C[C@@H](NC(=O)c3ccc4cn[nH]c4c3)C2)C1 (stereo partly drawn) [Example 316, N-((aR)-6-(4-oxo-3,4-dihydrophthalazin-1-yl)spiro[3.3]heptan-2-yl)-1H-indazole-6-carboxamide] | 5.1 to 15 |
| [H][C@]1(c2n[nH]c(=O)c3ccccc32)C[C@]2(C[C@@H](NC(=O)c3ccc4c(c3)ncn4C)C2)C1 (stereo partly drawn) [Example 317, 1-methyl-N-((aR)-6-(4-oxo-3,4-dihydrophthalazin-1-yl)spiro[3.3]heptan-2-yl)-1H-benzo[d] imidazole-5-carboxamide] | 5.1 to 15 |
| [H][C@]1(c2n[nH]c(=O)c3ccccc32)C[C@]2(C[C@@H](NC(=O)C3CCc4ccccc43)C2)C1 (stereo partly drawn) [Example 321, N-((aR)-6-(4-oxo-3,4-dihydrophthalazin-1-yl)spiro[3.3]heptan-2-yl)-2,3-dihydro-1H-indene-1-carboxamide] | 100 to 2100 |
| [H][C@]1(c2n[nH]c(=O)c3ccccc32)C[C@]2(C[C@@H](NC(=O)C3NCc4ccccc43)C2)C1 (stereo partly drawn) [Example 323, N-((aR)-6-(4-oxo-3,4-dihydrophthalazin-1-yl)spiro[3.3]heptan-2-yl)isoindoline-1-carboxamide] | 100 to 2100 |
| O=C(N[C@H]1CC2(C1)C[C@H](c1n[nH]c(=O)c3ccccc31)C2)c1cc2ccccn2n1 (stereo partly drawn) [Example 325, N-((aR)-6-(4-oxo-3,4-dihydrophthalazin-1-yl)spiro[3.3]heptan-2-yl)pyrazolo[1,5-a]pyridine-2-carboxamide] | 5.1 to 15 |
| [H][C@]1(c2n[nH]c(=O)c3ccccc32)C[C@]2(C[C@@H](NC(=O)c3cc4cccc(Cl)c4[nH]3)C2)C1 (stereo partly drawn) [Example 328, 7-chloro-N-((aR)-6-(4-oxo-3,4-dihydrophthalazin-1-yl)spiro[3.3]heptan-2-yl)-1H-indole-2-carboxamide] | 2.01 to 5 |
| [H][C@]1(c2n[nH]c(=O)c3ccccc32)C[C@]2(C[C@@H](NC(=O)c3cc4ccc(F)c(C)c4[nH]3)C2)C1 (stereo partly drawn) [Example 329, 6-fluoro-7-methyl-N-((aR)-6-(4-oxo-3,4-dihydrophthalazin-1-yl)spiro[3.3]heptan-2-yl)-1H-indole-2-carboxamide] | 0.2 to 2 |
| [H][C@]1(c2n[nH]c(=O)c3ccccc32)C[C@]2(C[C@@H](NC(=O)c3ccc4ccccc4n3)C2)C1 (stereo partly drawn) [Example 330, N-((aR)-6-(4-oxo-3,4-dihydrophthalazin-1-yl)spiro[3.3]heptan-2-yl)quinoline-2-carboxamide] | 15.1 to 100 |
| [H][C@]1(c2n[nH]c(=O)c3ccccc32)C[C@]2(C[C@@H](NC(=O)c3cc4cccc(C(F)(F)F)c4[nH]3)C2)C1 (stereo partly drawn) [Example 332, N-((aR)-6-(4-oxo-3,4-dihydrophthalazin-1-yl)spiro[3.3]heptan-2-yl)-7-(trifluoromethyl)-1H-indole-2-carboxamide] | 0.2 to 2 |
| [H][C@]1(c2n[nH]c(=O)c3ccccc32)C[C@]2(C[C@@H](NC(=O)c3cc4cccc(F)c4[nH]3)C2)C1 (stereo partly drawn) [Example 333, 7-fluoro-N-((aR)-6-(4-oxo-3,4-dihydrophthalazin-1-yl)spiro[3.3]heptan-2-yl)-1H-indole-2-carboxamide] | 5.1 to 15 |
| [H][C@]1(c2n[nH]c(=O)c3ccccc32)C[C@]2(C[C@@H](NC(=O)c3cc4c(OC)ccc(OC)c4[nH]3)C2)C1 (stereo partly drawn) [Example 334, 4,7-dimethoxy-N-((aR)-6-(4-oxo-3,4-dihydrophthalazin-1-yl)spiro[3.3]heptan-2-yl)-1H-indole-2-carboxamide] | 5.1 to 15 |
| [H][C@]1(c2n[nH]c(=O)c3ccccc32)C[C@]2(C[C@@H](NC(=O)c3cc4cc(F)cc(S(C)(=O)=O)c4[nH]3)C2)C1 (stereo partly drawn) [Example 335, 5-fluoro-7-(methylsulfonyl)-N-((aR)-6-(4-oxo-3,4-dihydrophthalazin-1-yl)spiro[3.3]heptan-2-yl)-1H-indole-2-carboxamide] | 2.01 to 5 |
| [H][C@]1(c2n[nH]c(=O)c3ccccc32)C[C@]2(C[C@@H](NC(=O)c3cccc(-n4cccn4)c3)C2)C1 (stereo partly drawn) [Example 336, N-((aR)-6-(4-oxo-3,4-dihydrophthalazin-1-yl)spiro[3.3]heptan-2-yl)-3-(1H-pyrazol-1-yl)benzamide] | 15.1 to 100 |
| [H][C@]1(c2n[nH]c(=O)c3ccccc32)C[C@]2(C[C@@H](NC(=O)c3ccc(-c4cn[nH]c4)cc3)C2)C1 (stereo partly drawn) [Example 337, N-((aR)-6-(4-oxo-3,4-dihydrophthalazin-1-yl)spiro[3.3]heptan-2-yl)-4-(1H-pyrazol-4-yl)benzamide] | 5.1 to 15 |
| O=C(NC1CC2(C1)CC(c1n[nH]c(=O)c3ccccc13)C2)c1cccc(-c2cn[nH]c2)c1 [Example 339, N-((aR)-6-(4-oxo-3,4-dihydrophthalazin-1-yl)spiro[3.3]heptan-2-yl)-3-(1H-pyrazol-4-yl)benzamide] | 15.1 to 100 |
| [H][C@]1(c2n[nH]c(=O)c3ccccc32)C[C@]2(C[C@@H](NC(=O)c3cccc(-c4nc(C)cs4)c3)C2)C1 (stereo partly drawn) [Example 340, 3-(4-methylthiazol-2-yl)-N-((aR)-6-(4-oxo-3,4-dihydrophthalazin-1-yl)spiro[3.3]heptan-2-yl)benzamide] | 5.1 to 15 |
| [H][C@]1(c2n[nH]c(=O)c3ccccc32)C[C@]2(C[C@@H](NC(=O)c3ccc(OC)nc3)C2)C1 (stereo partly drawn) [Example 341, 6-methoxy-N-((aR)-6-(4-oxo-3,4-dihydrophthalazin-1-yl)spiro[3.3]heptan-2-yl)nicotinamide] | 15.1 to 100 |
| [H][C@]1(c2n[nH]c(=O)c3ccccc32)C[C@]2(C[C@@H](NC(=O)c3ccc(C(F)(F)F)nc3)C2)C1 (stereo partly drawn) [Example 342, N-((aR)-6-(4-oxo-3,4-dihydrophthalazin-1-yl)spiro[3.3]heptan-2-yl)-6-(trifluoromethyl) nicotinamide] | 100 to 2100 |
| [H][C@]1(c2n[nH]c(=O)c3ccccc32)C[C@]2(C[C@@H](NC(=O)c3ccc(C)nc3O)C2)C1 (stereo partly drawn) [Example 343, 2-hydroxy-6-methyl-N-((aR)-6-(4-oxo-3,4-dihydrophthalazin-1-yl)spiro[3.3]heptan-2-yl)nicotinamide] | 15.1 to 100 |
| [H][C@]1(c2n[nH]c(=O)c3ccccc32)C[C@]2(C[C@@H](NC(=O)c3ccc(-c4nn[nH]n4)cc3)C2)C1 (stereo partly drawn) [Example 345, N-((aR)-6-(4-oxo-3,4-dihydrophthalazin-1-yl)spiro[3.3]heptan-2-yl)-4-(2H-tetrazol-5-yl)benzamide] | 100 to 2100 |
| [H][C@]1(c2n[nH]c(=O)c3ccccc32)C[C@]2(C[C@@H](NC(=O)c3ccc(-n4cccn4)nc3)C2)C1 (stereo partly drawn) [Example 346, N-((aR)-6-(4-oxo-3,4-dihydrophthalazin-1-yl)spiro[3.3]heptan-2-yl)-6-(1H-pyrazol-1-yl)nicotinamide] | 15.1 to 100 |
| [H][C@]1(c2n[nH]c(=O)c3ccccc32)C[C@]2(C[C@@H](NC(=O)c3ccc(-n4cncn4)cc3)C2)C1 (stereo partly drawn) [Example 348, N-((aR)-6-(4-oxo-3,4-dihydrophthalazin-1-yl)spiro[3.3]heptan-2-yl)-4-(1H-1,2,4-triazol-1-yl)benzamide] | 15.1 to 100 |
